Experimental data: US12390437B2, “Itaconic acid derivatives and uses thereof intreating an inflammatory disease or a disease associated with an undesirable immune response” (Sitryx Therapeutics Limited, priority 2019, dated 2025)

Tested on: not listed separately
Assay: Mouse pharmacokinetic study, oral administration
Assay type: in vivo
Settings: male, C57BL/6, mouse, plasma, po, 100 mg/kg, plasma, male C57BL/6 mice, oral gavage 100 mg/kg, 0.25 h; read-out: Parent compound concentrations following oral administration, Time 0.25 h
Summary of the method: (§1)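 Oral arm: 100 mg/kg gavage in 5% DMSO with 0.5% HPMC/0.1% Tween 80, blood from 5 min to 24 h. Intravenous arm: 10 mg/kg tail-vein injection in 10% DMSO with HP-β-CD, blood from 3 min to 8 h. Male C57BL/6 mice; LC-MS/MS on plasma.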

concentration at 0.25 h | SMILES
9090 ng/mL | C=C(CC(=O)O[C@@H](C)CCCCCC)C(=O)OCCC(=O)O [Example 84, (S)-3-((2-methylene-4-(octan-2-yloxy)-4-oxobutanoyl)oxy)propanoic acid]
35300 ng/mL | C=C(CC(=O)OC1CCCCC1)C(=O)OCCC(=O)O [Example 87, 3-((4-(cyclohexyloxy)-2-methylene-4-oxobutanoyl)oxy)propanoic acid]
536 ng/mL | C=C(CC(=O)OCCCCCCCC)C(=O)OCC(=O)O [Example 49, 2-((2-methylene-4-(octyloxy)-4-oxobutanoyl)oxy)acetic acid]
8860 ng/mL | C=C(CC(=O)OC1CCCCC1)C(=O)OCC(=O)O [Example 91, 2-((4-(cyclohexyloxy)-2-methylene-4-oxobutanoyl)oxy)acetic acid]

Same assay, conditions: male, C57BL/6, mouse, plasma, po, 100 mg/kg, plasma, male C57BL/6 mice, oral gavage 100 mg/kg, 0.5 h; read-out: Parent compound concentrations following oral administration, Time 0.5 h

concentration at 0.5 h | SMILES
5120 ng/mL | C=C(CC(=O)O[C@@H](C)CCCCCC)C(=O)OCCC(=O)O [Example 84, (S)-3-((2-methylene-4-(octan-2-yloxy)-4-oxobutanoyl)oxy)propanoic acid]
15900 ng/mL | C=C(CC(=O)OC1CCCCC1)C(=O)OCCC(=O)O [Example 87, 3-((4-(cyclohexyloxy)-2-methylene-4-oxobutanoyl)oxy)propanoic acid]
843 ng/mL | C=C(CC(=O)OCCCCCCCC)C(=O)OCC(=O)O [Example 49, 2-((2-methylene-4-(octyloxy)-4-oxobutanoyl)oxy)acetic acid]
6240 ng/mL | C=C(CC(=O)OC1CCCCC1)C(=O)OCC(=O)O [Example 91, 2-((4-(cyclohexyloxy)-2-methylene-4-oxobutanoyl)oxy)acetic acid]

Same assay, conditions: male, C57BL/6, mouse, plasma, po, 100 mg/kg, plasma, male C57BL/6 mice, oral gavage 100 mg/kg, 1 h; read-out: Parent compound concentrations following oral administration, Time 1 h

concentration at 1 h | SMILES
3310 ng/mL | C=C(CC(=O)O[C@@H](C)CCCCCC)C(=O)OCCC(=O)O [Example 84, (S)-3-((2-methylene-4-(octan-2-yloxy)-4-oxobutanoyl)oxy)propanoic acid]
8520 ng/mL | C=C(CC(=O)OC1CCCCC1)C(=O)OCCC(=O)O [Example 87, 3-((4-(cyclohexyloxy)-2-methylene-4-oxobutanoyl)oxy)propanoic acid]
344 ng/mL | C=C(CC(=O)OCCCCCCCC)C(=O)OCC(=O)O [Example 49, 2-((2-methylene-4-(octyloxy)-4-oxobutanoyl)oxy)acetic acid]
1920 ng/mL | C=C(CC(=O)OC1CCCCC1)C(=O)OCC(=O)O [Example 91, 2-((4-(cyclohexyloxy)-2-methylene-4-oxobutanoyl)oxy)acetic acid]

Same assay, conditions: male, C57BL/6, mouse, plasma, po, 100 mg/kg, plasma, male C57BL/6 mice, oral gavage 100 mg/kg, 2 h; read-out: Parent compound concentrations following oral administration, Time 2 h

concentration at 2 h | SMILES
1000 ng/mL | C=C(CC(=O)O[C@@H](C)CCCCCC)C(=O)OCCC(=O)O [Example 84, (S)-3-((2-methylene-4-(octan-2-yloxy)-4-oxobutanoyl)oxy)propanoic acid]
1460 ng/mL | C=C(CC(=O)OC1CCCCC1)C(=O)OCCC(=O)O [Example 87, 3-((4-(cyclohexyloxy)-2-methylene-4-oxobutanoyl)oxy)propanoic acid]
111 ng/mL | C=C(CC(=O)OCCCCCCCC)C(=O)OCC(=O)O [Example 49, 2-((2-methylene-4-(octyloxy)-4-oxobutanoyl)oxy)acetic acid]
450 ng/mL | C=C(CC(=O)OC1CCCCC1)C(=O)OCC(=O)O [Example 91, 2-((4-(cyclohexyloxy)-2-methylene-4-oxobutanoyl)oxy)acetic acid]

Same assay, conditions: male, C57BL/6, mouse, plasma, po, 100 mg/kg, plasma, male C57BL/6 mice, oral gavage 100 mg/kg, 4 h; read-out: Parent compound concentrations following oral administration, Time 4 h

concentration at 4 h | SMILES
368 ng/mL | C=C(CC(=O)O[C@@H](C)CCCCCC)C(=O)OCCC(=O)O [Example 84, (S)-3-((2-methylene-4-(octan-2-yloxy)-4-oxobutanoyl)oxy)propanoic acid]
198 ng/mL | C=C(CC(=O)OC1CCCCC1)C(=O)OCCC(=O)O [Example 87, 3-((4-(cyclohexyloxy)-2-methylene-4-oxobutanoyl)oxy)propanoic acid]
12 ng/mL | C=C(CC(=O)OCCCCCCCC)C(=O)OCC(=O)O [Example 49, 2-((2-methylene-4-(octyloxy)-4-oxobutanoyl)oxy)acetic acid]
33 ng/mL | C=C(CC(=O)OC1CCCCC1)C(=O)OCC(=O)O [Example 91, 2-((4-(cyclohexyloxy)-2-methylene-4-oxobutanoyl)oxy)acetic acid]

Same assay, conditions: male, C57BL/6, mouse, plasma, po, 100 mg/kg, plasma, male C57BL/6 mice, oral gavage 100 mg/kg, 8 h; read-out: Parent compound concentrations following oral administration, Time 8 h

concentration at 8 h | SMILES
217 ng/mL | C=C(CC(=O)O[C@@H](C)CCCCCC)C(=O)OCCC(=O)O [Example 84, (S)-3-((2-methylene-4-(octan-2-yloxy)-4-oxobutanoyl)oxy)propanoic acid]
31 ng/mL | C=C(CC(=O)OC1CCCCC1)C(=O)OCCC(=O)O [Example 87, 3-((4-(cyclohexyloxy)-2-methylene-4-oxobutanoyl)oxy)propanoic acid]
4.5 ng/mL | C=C(CC(=O)OCCCCCCCC)C(=O)OCC(=O)O [Example 49, 2-((2-methylene-4-(octyloxy)-4-oxobutanoyl)oxy)acetic acid]
19 ng/mL | C=C(CC(=O)OC1CCCCC1)C(=O)OCC(=O)O [Example 91, 2-((4-(cyclohexyloxy)-2-methylene-4-oxobutanoyl)oxy)acetic acid]

Same assay, conditions: male, C57BL/6, mouse, plasma, po, 100 mg/kg, plasma, male C57BL/6 mice, oral gavage 100 mg/kg, 24 h; read-out: Parent compound concentrations following oral administration, Time 24 h

concentration at 24 h | SMILES
< 31 ng/mL | C=C(CC(=O)O[C@@H](C)CCCCCC)C(=O)OCCC(=O)O [Example 84, (S)-3-((2-methylene-4-(octan-2-yloxy)-4-oxobutanoyl)oxy)propanoic acid]
< 14 ng/mL | C=C(CC(=O)OC1CCCCC1)C(=O)OCCC(=O)O [Example 87, 3-((4-(cyclohexyloxy)-2-methylene-4-oxobutanoyl)oxy)propanoic acid]
< 1.5 ng/mL | C=C(CC(=O)OCCCCCCCC)C(=O)OCC(=O)O [Example 49, 2-((2-methylene-4-(octyloxy)-4-oxobutanoyl)oxy)acetic acid]
13 ng/mL | C=C(CC(=O)OC1CCCCC1)C(=O)OCC(=O)O [Example 91, 2-((4-(cyclohexyloxy)-2-methylene-4-oxobutanoyl)oxy)acetic acid]

Tested on: IL-6 cytokine output from THP-1s
Assay: THP-1 AlphaLISA IL-6 cytokine assay
Assay type: cell-based, human
Settings: Homo sapiens; PMA-differentiated THP-1 cells, LPS 24 hr then Nigericin 1 hour
Summary of the method: (§2)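 PMA-differentiated (72 h) THP-1 cells pretreated 30 min with compound, LPS-stimulated 24 h, then nigericin 1 h at 37 °C. Supernatant IL-1β and IL-6 by AlphaLISA; % inhibition normalised to ±LPS controls, IC50 from concentration-response curves.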

IC50 | SMILES
22 µM | C=C(CC(=O)O[C@@H](C)CCCCCC)C(=O)OCCC(=O)O [Example 84, (S)-3-((2-methylene-4-(octan-2-yloxy)-4-oxobutanoyl)oxy)propanoic acid]
100 µM | C=C(CC(=O)OC1CCCCC1)C(=O)OCCC(=O)O [Example 87, 3-((4-(cyclohexyloxy)-2-methylene-4-oxobutanoyl)oxy)propanoic acid]
5.5 µM | C=C(CC(=O)OCCCCCCCC)C(=O)OCC(=O)O [Example 49, 2-((2-methylene-4-(octyloxy)-4-oxobutanoyl)oxy)acetic acid]
33.8 µM | C=C(CC(=O)OC1CCCCC1)C(=O)OCC(=O)O [Example 91, 2-((4-(cyclohexyloxy)-2-methylene-4-oxobutanoyl)oxy)acetic acid]

Tested on: not listed separately
Assay: Mouse pharmacokinetic study, intravenous dosing
Assay type: in vivo
Settings: male, C57BL/6, mouse, iv; plasma, 10 mg/kg i.v., time 0.05 h; read-out: Parent compound concentration following intravenous administration
Summary of the method: as §1

concentration at 0.05 h | SMILES
5580 ng/mL | C=C(CC(=O)O[C@@H](C)CCCCCC)C(=O)OCCC(=O)O [Example 84, (S)-3-((2-methylene-4-(octan-2-yloxy)-4-oxobutanoyl)oxy)propanoic acid]

Same assay, conditions: male, C57BL/6, mouse, iv; plasma, 10 mg/kg i.v., time 0.25 h; read-out: Parent compound concentration following intravenous administration

concentration at 0.25 h | SMILES
1030 ng/mL | C=C(CC(=O)O[C@@H](C)CCCCCC)C(=O)OCCC(=O)O [Example 84, (S)-3-((2-methylene-4-(octan-2-yloxy)-4-oxobutanoyl)oxy)propanoic acid]

Same assay, conditions: male, C57BL/6, mouse, iv; plasma, 10 mg/kg i.v., time 0.5 h; read-out: Parent compound concentration following intravenous administration

concentration at 0.5 h | SMILES
217 ng/mL | C=C(CC(=O)O[C@@H](C)CCCCCC)C(=O)OCCC(=O)O [Example 84, (S)-3-((2-methylene-4-(octan-2-yloxy)-4-oxobutanoyl)oxy)propanoic acid]

Same assay, conditions: male, C57BL/6, mouse, iv; plasma, 10 mg/kg i.v., time 1 h; read-out: Parent compound concentration following intravenous administration

concentration at 1 h | SMILES
34 ng/mL | C=C(CC(=O)O[C@@H](C)CCCCCC)C(=O)OCCC(=O)O [Example 84, (S)-3-((2-methylene-4-(octan-2-yloxy)-4-oxobutanoyl)oxy)propanoic acid]

Same assay, conditions: male, C57BL/6, mouse, iv; plasma, 10 mg/kg i.v., time 2 h; read-out: Parent compound concentration following intravenous administration

concentration at 2 h | SMILES
6.5 ng/mL | C=C(CC(=O)O[C@@H](C)CCCCCC)C(=O)OCCC(=O)O [Example 84, (S)-3-((2-methylene-4-(octan-2-yloxy)-4-oxobutanoyl)oxy)propanoic acid]

Same assay, conditions: male, C57BL/6, mouse, iv; plasma, 10 mg/kg i.v., time 4 h; read-out: Parent compound concentration following intravenous administration

concentration at 4 h | SMILES
< 2 ng/mL | C=C(CC(=O)O[C@@H](C)CCCCCC)C(=O)OCCC(=O)O [Example 84, (S)-3-((2-methylene-4-(octan-2-yloxy)-4-oxobutanoyl)oxy)propanoic acid]

Same assay, conditions: male, C57BL/6, mouse, iv; plasma, 10 mg/kg i.v., time 6 h; read-out: Parent compound concentration following intravenous administration

concentration at 6 h | SMILES
< 2 ng/mL | C=C(CC(=O)O[C@@H](C)CCCCCC)C(=O)OCCC(=O)O [Example 84, (S)-3-((2-methylene-4-(octan-2-yloxy)-4-oxobutanoyl)oxy)propanoic acid]

Tested on: IL-1β cytokine output from THP-1s
Assay: THP-1 AlphaLISA IL-1β cytokine assay
Assay type: cell-based, human
Settings: Homo sapiens, THP-1, PMA-differentiated THP-1 cells, LPS 24 hr then Nigericin 1 hour; read-out: IL-1β (IC50)
Summary of the method: as §2

IC50 | SMILES
14.3 µM | C=C(CC(=O)O[C@@H](C)CCCCCC)C(=O)OCCC(=O)O [Example 84, (S)-3-((2-methylene-4-(octan-2-yloxy)-4-oxobutanoyl)oxy)propanoic acid]
28.1 µM | C=C(CC(=O)OC1CCCCC1)C(=O)OCCC(=O)O [Example 87, 3-((4-(cyclohexyloxy)-2-methylene-4-oxobutanoyl)oxy)propanoic acid]
7.2 µM | C=C(CC(=O)OCCCCCCCC)C(=O)OCC(=O)O [Example 49, 2-((2-methylene-4-(octyloxy)-4-oxobutanoyl)oxy)acetic acid]
48.1 µM | C=C(CC(=O)OC1CCCCC1)C(=O)OCC(=O)O [Example 91, 2-((4-(cyclohexyloxy)-2-methylene-4-oxobutanoyl)oxy)acetic acid]
